Measurements as given in patent publication US4758574A, “2-phenylimidazio (4,5-c) pyridines” (Eli Lilly and Company, priority 1986, dated 1988).
Where a name gives a salt, the structure may show the parent alone.

Experiments:
Cat Papillary Muscles = test: Positive Inotropic Activity in Isolated Cat Papillary Muscles; format: cell-based; conditions: Felis catus, control = 100 percent, read-out: Contractility of Papillary Muscle (peak response); for activity at 100 µM: Drug Concentration 10^-4 M; for activity at 10 µM: Drug Concentration 10^-5 M
Procedure: Positive Inotropic Activity in Isolated Cat Papillary Muscles […] A platinum hook secured one end of the muscle to an electrode mounted in the bottom of the bath, and a silk thread attached the tendon to a Statham isometric transducer. The baths contained Krebs-Henseleit solution (36° C., bubbled with 95 percent oxygen--5 percent carbon dioxide) of the following millimolar composition: NaCl, 118; KCl, 4.5; CaCl2, 2.5; KH2 PO4, 1.1; MgSO4, 1.2; NaHCO3, 25; and glucose, 11. A base-line tension of 1.5 g. was applied to each muscle. Square-wave pulses (5.0 msec. in duration, three times threshold voltage) delivered through the hook electrode and a second electrode positioned near the top of the muscle evoked 12 contractions/minute, which were recorded on a Grass polygraph. After the muscles had equilibrated for 60 minutes, the recorder gain was adjusted so that the pen deflected 10 mm. The drug was introduced in a solution of normal saline in an amount to bring the final concentration of the drug to 10^-5 or 10^-4 molar. Increases in contractility were tabulated as millimeters of pen deflection in excess of the baseline value. In each experiment the maximum contractility was measured. Test results are summarized in Table I and are expressed as percent of control (control=100 percent). Values are the average of results from 2 to 8 muscles.

[1] = test system: Ventricular Contractility in the Anesthetized Dog; test: Ventricular Contractility in the Anesthetized Dog; format: in vivo, Mongrel dogs; conditions: Canis lupus familiaris, iv, i.v. bolus, read-out: ED50 (dose required to produce a peak increase in contractility of 50%)
Procedure: Experiments in Anesthetized Dogs Mongrel dogs of either sex ranging in weight from 7 to 14 kg. wer used. Anesthesia was induced with sodium pentobarbital (30 mg./kg., i.v.) and maintained with supplemental doses as required. A positive-pressure pump was used to ventilate the dogs through an endotracheal tube (18 strokes/minute, 20 ml./kg. stroke^-1), and a heating pad kept the body temperature at 37°-38° C. Femoral arterial blood pressure was measured through a polyethylene catheter filled with heparin solution (16 units/ml.) and connected to a Statham pressure transducer. A strain-gauge arch sutured to the right ventricle of the heart measured cardiac contractility. Tension on the gauge was adjusted to 50 g. and the gain of the recorder (Beckman dynograph) was set so that 50 g. caused a 10-mm. pen deflection; cardiac contractile tension was measured as millimeters of pen deflection or grams of tension. The drug was administered following a 30-45 minute equilibrium period as an i.v. bolus (2-5 ml.) in a normal saline vehicle. […] The maximum effects on contractility at various dose levels were determined and plotted and the dose required to produce a 50% increase in contractility (ED50) was determined by interpolation.

Structure (SMILES) | activity at 100 µM (Cat Papillary Muscles) [%] | activity at 10 µM (Cat Papillary Muscles) [%] | ED50 [1] [mg/kg]
Fc1cccc(-c2nc3cnccc3[nH]2)c1 [Example 1, 2-(3-Fluorophenyl)imidazo[4,5-c]pyridine hydrochloride] | 157 | 112 | 
Cc1cccc(-c2nc3cnccc3[nH]2)c1 [Example 2, 2-(3-Methylphenyl)imidazo[4,5-c]pyridine] | 181 | 116 | 1
Clc1cc(Cl)cc(-c2nc3cnccc3[nH]2)c1 [Example 3, 2-(3,5-Dichlorophenyl)imidazo[4,5-c]pyridine hydrochloride] | 146 | 117 | 
CS(=O)(=O)c1ccc(-c2nc3cnccc3[nH]2)cc1 [Example 4, 2-(4-Methylsulfonylphenyl)imidazo[4,5-c]pyridine hydrochloride] | 139 | 117 | 7.5
Fc1ccc(-c2nc3cnccc3[nH]2)cc1 [Example 5, 2-(4-Fluorophenyl)imidazo[4,5-c]pyridine hydrochloride] | 163 | 105 | 
Fc1ccccc1-c1nc2cnccc2[nH]1 [Example 6, 2-(2-Fluorophenyl)imidazo[4,5-c]pyridine hydrochloride] | 152 | 108 | 
COc1cc(-c2nc3cnccc3[nH]2)cc(OC)c1OC [Example 10, 2-(3,4,5-trimethoxyphenyl)imidazo[4,5-c]pyridine hydrochloride] | 150 | 109 | 
COc1cccc(-c2nc3cnccc3[nH]2)c1OC [Example 11, 2-(2,3-dimethoxyphenyl)imidazo[4,5-c]pyridine hydrochloride] | 90 | 102 | 
O=[N+]([O-])c1cccc(-c2nc3cnccc3[nH]2)c1 [Example 12, 2-(3-nitrophenyl)imidazo[4,5-c]pyridine hydrochloride] | 105 | 102 | 
N#Cc1ccc(-c2nc3cnccc3[nH]2)cc1 [Example 14, 2-(4-cyanophenyl)imidazo[4,5-c]pyridine hydrochloride] | 164 | 112 | 
COc1cccc(-c2nc3cnccc3[nH]2)c1 [Example 16, 2-(3-methoxyphenyl)imidazo[4,5-c]pyridine hydrochloride] | 213 | 114 | 
CN(C)c1ccc(-c2nc3cnccc3[nH]2)cc1 [Example 17, 2-(4-dimethylaminophenyl)imidazo[4,5-c]pyridine hydrochloride] | 175 | 95 | 
COc1ccccc1-c1nc2cnccc2[nH]1 [Example 18, 2-(2-methoxyphenyl)imidazo[4,5-c]pyridine hydrochloride] | 163 | 115 | 
CCCCOc1ccc(-c2nc3cnccc3[nH]2)cc1 [Example 19, 2-(4-n-butoxyphenyl)imidazo[4,5-c]pyridine hydrochloride] | 288 | 114 | 
COc1cc(Cl)ccc1-c1nc2cnccc2[nH]1 [Example 20, 2-(4-chloro-2-methoxyphenyl)imidazo[4,5-c]pyridine hydrochloride] | 146 | 147 | 
COc1c(C)cc(-c2nc3cnccc3[nH]2)cc1C [Example 21, 2-(3,5-dimethyl-4-methoxyphenyl)imidazo[4,5-c]pyridine hydrochloride] | 215 | 127 | 
COc1ccc(-c2nc3cnccc3[nH]2)c(OC)c1OC [Example 22, 2-(2,3,4-trimethoxyphenyl)imidazo[4,5-c]pyridine hydrochloride] | 221 | 117 | 
Cc1ccc(-c2nc3cnccc3[nH]2)cc1 [Example 25, 2-(4-methylphenyl)imidazo[4,5-c]pyridine hydrochloride] | 130 | 95 | 
CCOc1cc(OC)ccc1-c1nc2cnccc2[nH]1 [Example 28, 2-(2-ethoxy-4-methoxyphenyl)imidazo[4,5-c]pyridine] | 130 | 108 | 

Structure (SMILES) | activity at 100 µM (Cat Papillary Muscles) [%] | activity at 10 µM (Cat Papillary Muscles) [%] | ED50 [1] [mg/kg]
CCCCOc1cc(OC)ccc1-c1nc2cnccc2[nH]1 [Example 30, 2-(2-n-butoxy-4-methoxyphenyl)imidazo[4,5-c]pyridine] | 140 | 100 | 
COc1ccc(OC)c(-c2nc3cnccc3[nH]2)c1 [Example 31, 2-(2,5-dimethoxyphenyl)imidazo[4,5-c]pyridine hydrochloride] | 194 | 110 | 
COc1cc(OC)cc(-c2nc3cnccc3[nH]2)c1 [Example 32, 2-(3,5-dimethoxyphenyl)imidazo[4,5-c]pyridine] | 179 | 115 | 
COc1cccc(OC)c1-c1nc2cnccc2[nH]1 [Example 33, 2-(2,6-dimethoxyphenyl)imidazo[4,5-c]pyridine hydrochloride] | 184 | 88 | 
COc1cc(OC)c(-c2nc3cnccc3[nH]2)c(OC)c1 [Example 34, 2-(2,4,6-trimethoxyphenyl)imidazo[4,5-c]pyridine] | 137 | 103 | 
CCCCCOc1cc(OC)ccc1-c1nc2cnccc2[nH]1 [Example 35, 2-(2-n-pentoxy-4-methoxyphenyl)imidazo[4,5-c]pyridine hydrochloride] | 81 | 105 | 
COCCCOc1cc(OC)ccc1-c1nc2cnccc2[nH]1 [Example 36, 2-[2-(γ-methoxypropoxy)-4-methoxyphenyl]imidazo[4,5-c]pyridine] | 147 | 100 | 
COCCOc1cc(OC)ccc1-c1nc2cnccc2[nH]1 [Example 37, 2-[2-(β-methoxyethoxy)-4-methoxyphenyl]imidazo[4,5-c]pyridine] | 116 | 109 | 
COc1ccc(-c2nc3cnccc3[nH]2)c(OCCSc2ccccc2)c1 [Example 38, 2-[2-(β-phenylmercaptoethoxy)-4-methoxyphenyl]imidazo[4,5-c]pyridine] | 109 | 103 | 
COc1cc(OC)c(-c2nc3cnccc3[nH]2)cc1OC [Example 40, 2-(2,4,5-trimethoxyphenyl)imidazo[4,5-c]pyridine hydrochloride] | 129 | 108 | 
CCSc1ccc(-c2nc3cnccc3[nH]2)c(OC)c1 [Example 41, 2-(2-methoxy-4-ethylmercaptophenyl)imidazo[4,5-c]pyridine hydrochloride] | 196 | 136 | 
CCOc1cc(SC)ccc1-c1nc2cnccc2[nH]1 [Example 42, 2-(2-ethoxy-4-methylmercaptophenyl)imidazo[4,5-c]pyridine] | 149 | 122 | 
CCCOc1cc(SC)ccc1-c1nc2cnccc2[nH]1 [Example 43, 2-(2-n-propoxy-4-methylmercaptophenyl)imidazo[4,5-c]pyridine] |  |  | 2.2
COc1ccc(-c2nc3cnccc3[nH]2)c(OCCCSC)c1 [Example 44, 2-[2-(γ-methylmercaptopropoxy)-4-methoxyphenyl]imidazo[4,5-c]pyridine] | 129 | 118 | 
Cc1ccc(-c2nc3cnccc3[nH]2)cc1C [Example 46, 2-(3,4-dimethylphenyl)imidazo[4,5-c]pyridine hydrochloride] | 225 | 133 | 
Clc1cccc(-c2nc3cnccc3[nH]2)c1 [Example 48, 2-(3-chlorophenyl)imidazo[4,5-c]pyridine] | 176 | 107 | 
Clc1ccc(-c2nc3cnccc3[nH]2)cc1 [Example 49, 2-(4-chlorophenyl)imidazo[4,5-c]pyridine] | 175 | 107 | 
COc1ccc(-c2nc3cnccc3[nH]2)c(OCC[S+]([O-])c2ccccc2)c1 (stereo not drawn) [Example 53, 2-[2-(β-phenylsulfinylethoxy)-4-methoxyphenyl]imidazo[4,5-c]pyridine] | 96 | 107 | 
COc1cc(Br)ccc1-c1nc2cnccc2[nH]1 [Example 57, 2-(2-methoxy-4-bromophenyl)imidazo[4,5-c]pyridine hydrochloride] | 175 | 134 | 
